Experimental data published in patent US20220073554A1, “LINCOSAMIDE ANTIBIOTICS AND USES THEREOF” (President and Fellows of Harvard College, priority 2017, published 2022).
≈ marks a conversion by molar mass, not a printed value. Read-outs that look alike come from different tables or passages of the source.

Columns and labels:
Assay type in all cases: cell-based
S. aureus ATCC 29213 = test: MIC against S. aureus ATCC 29213; details: Staphylococcus aureus
S. aureus BAA 977 iErmA = test: MIC against S. aureus BAA 977 iErmA; details: Staphylococcus aureus, BAA977
[1] = tested on: S. aureus Micromyx USA 300; test: MIC against S. aureus Micromyx USA 300; details: Staphylococcus aureus, USA300
[2] = tested on: S. aureus MP-513 clinical cErm; test: MIC against S. aureus MP-513 clinical cErm; details: Staphylococcus aureus
S. aureus MMX 3035 cErmA = test: MIC against S. aureus MMX 3035 cErmA; details: Staphylococcus aureus, MMX3035CERMA
S. pneumoniae ATCC 49619 = test: MIC against S. pneumoniae ATCC 49619; details: Streptococcus pneumoniae, ATCC49619; S. pneumoniae ATCC 49619; read-out: MIC
[3] = tested on: S. pneumoniae MMX 3028 cErmB; test: MIC against S. pneumoniae MMX 3028 cErmB; details: Streptococcus pneumoniae, MMX3028CERMB
[4] = tested on: S. pneumoniae MMX 3031 cMefA; test: MIC against S. pneumoniae MMX 3031 cMefA; details: Streptococcus pneumoniae, MMX3031CMEFA
S. pyogenes ATCC 19615 = test: MIC against S. pyogenes ATCC 19615; details: Streptococcus pyogenes, ATCC19615
[5] = tested on: S. pyogenes MMX 946 Macrolide-Resistant; test: MIC against S. pyogenes MMX 946 Macrolide-Resistant; details: Streptococcus pyogenes
[6] = tested on: E. faecalis MMX 847 Macrolide-Resistant; test: MIC against E. faecalis MMX 847 Macrolide-Resistant; details: Enterococcus faecalis
C. difficile BAA 1805 = test: MIC against C. difficile BAA 1805; details: Clostridioides difficile, BAA1805
B. fragilis ATCC 25285 = test: MIC against B. fragilis ATCC 25285; details: Bacteroides fragilis, ATCC25285
E. coli ATCC 15922 = test: MIC against E. coli ATCC 15922; details: Escherichia coli, ATCC15922
[7] = tested on: E. coli MMX TolC parent strain; test: MIC against E. coli MMX TolC parent strain; details: Escherichia coli
E. coli MMX 0121 ΔTolC = test: MIC against E. coli MMX 0121 ΔTolC; details: Escherichia coli
P. aeruginosa ATCC 27853 = test: MIC against P. aeruginosa ATCC 27853; details: Pseudomonas aeruginosa, ATCC27853
[8] = tested on: P. aeruginosa MMX Mex parent strain; test: MIC against P. aeruginosa MMX Mex parent strain; details: Pseudomonas aeruginosa
[9] = tested on: P. aeruginosa MMX 3476 Δmex; test: MIC against P. aeruginosa MMX 3476 Δmex; details: Pseudomonas aeruginosa
E. faecalis ATCC 29212 = test: MIC against E. faecalis ATCC 29212; details: Enterococcus faecalis, ATCC29212
H. influenzae ATCC 49247 = test: MIC against H. influenzae ATCC 49247; details: Haemophilus influenzae, ATCC49247
E. coli ATCC 25922 = test: MIC against E. coli ATCC 25922; details: Escherichia coli, ATCC25922
[10] = tested on: S. aureus MP-549 msr(a) USA 300; test: MIC against S. aureus MP-549 msr(a) USA 300; details: Staphylococcus aureus, USA300, S. aureus MP-549 msr(a) USA 300
[11] = tested on: S. aureus UNT96, NRS710, MP-618 (USA100, Erythro > 8); test: microbe, parasite or virus in culture; details: Staphylococcus aureus
[12] = tested on: S. aureus UNT-146, MP-620, TP 506 (ermA); test: microbe, parasite or virus in culture; details: Staphylococcus aureus
[13] = tested on: S. aureus UNT-120, MP-619, NR522 (USA 600, GISA); test: microbe, parasite or virus in culture; details: Staphylococcus aureus, USA600
E. faecalis UNT-047 VRE = test: microbe, parasite or virus in culture; details: Enterococcus faecalis
K. pneumoniae ATCC 10031 = test: MIC against K. pneumoniae ATCC 10031; details: Klebsiella pneumoniae, ATCC10031
E. coli MP-9 ΔTolC = test: MIC against E. coli MP-9 ΔTolC; details: Escherichia coli
[14] = tested on: S. pneumoniae UNT-039, MP-627, TP1517 (mefA); test: MIC against S. pneumoniae UNT-039, MP-627, TP1517 (mefA); details: Streptococcus pneumoniae
[15] = tested on: S. pyogenes UNT-014, MP-625 MacRes; test: MIC against S. pyogenes UNT-014, MP-625 MacRes; details: Streptococcus pyogenes
[16] = S. pyogenes ATCC 19615, read-out: MIC

SMILES	MIC (S. aureus BAA 977 iErmA) [µg/mL]	MIC [2] [µg/mL]	MIC (S. aureus MMX 3035 cErmA) [µg/mL]	MIC (S. pneumoniae ATCC 49619) [µg/mL]	MIC (S. pyogenes ATCC 19615; [16]) [µg/mL]	MIC [6] [µg/mL]	MIC (B. fragilis ATCC 25285) [µg/mL]	MIC [7] [µg/mL]	MIC (E. coli MMX 0121 ΔTolC) [µg/mL]	MIC (P. aeruginosa ATCC 27853) [µg/mL]	MIC [8] [µg/mL]	MIC [9] [µg/mL]	MIC (S. aureus ATCC 29213; ATCC29213) [µg/mL]	MIC (E. faecalis ATCC 29212) [µg/mL]	MIC (E. coli ATCC 25922) [µg/mL]	MIC [10] [µg/mL]	MIC [11] [µg/mL]	MIC [12] [µg/mL]	MIC [13] [µg/mL]	MIC (E. faecalis UNT-047 VRE) [µg/mL]	further results
CSC1O[C@H]([C@H](NC(=O)[C@H]2NC[C@@H]3CC=CCO[C@H]32)[C@H](C)Sc2ccc(-c3cncnc3)cc2)C(O)[C@@H](O)[C@H]1O (stereo partly shown) [FSA-27049]	2 (≈ 3.4 µM)	> 64	> 64	≤ 0.06	≤ 0.06	> 64	> 64	> 64	8 (≈ 13.6 µM)	> 64	> 64	> 64									MIC (S. aureus ATCC 29213; ATCC29213, S. aureus ATCC 29213, read-out: MIC): 1 µg/mL (≈ 1.7 µM); MIC ([1]; S. aureus Micromyx USA 300, read-out: MIC): 1 µg/mL (≈ 1.7 µM); MIC ([3]; S. pneumoniae MMX 3028 cErmB, read-out: MIC): 39 µg/mL (≈ 66.2 µM); MIC [4]: ≤ 0.06 µg/mL; MIC ([5]; S. pyogenes MMX 946 Macrolide-Resistant (MacRes), read-out: MIC): 2 µg/mL (≈ 3.4 µM); MIC (C. difficile BAA 1805; C. difficile BAA 1805, read-out: MIC): 1 µg/mL (≈ 1.7 µM); MIC (E. coli ATCC 15922): > 64 µg/mL
Cc1ccc(S(=O)(=O)OCC2O[C@H]([C@H](NC(=O)[C@H]3NC[C@@H]4CC=CCO[C@H]43)[C@@H](C)O)C(O)[C@@H](O)[C@H]2O)cc1 (stereo partly shown) [FSA-211030]	> 64		> 64		1 (≈ 1.8 µM)	> 64	> 64	> 64	> 64	> 64	> 64	> 64	> 64	> 64	> 64						MIC [1]: > 64 µg/mL; MIC [3]: > 64 µg/mL; MIC [5]: > 64 µg/mL; MIC (C. difficile BAA 1805): > 64 µg/mL; MIC (H. influenzae ATCC 49247): > 64 µg/mL
CSC1O[C@H]([C@H](NC(=O)[C@H]2NC[C@@H]3C[C@@H](O)[C@@H](O)CO[C@H]32)[C@H](C)Cl)C(O)[C@@H](O)[C@H]1O (stereo partly shown) [FSA-501076]	> 64	> 64								> 64			> 64	> 64	> 64	> 64	> 64	> 64	> 64	> 64	MIC (S. pyogenes ATCC 19615): > 64 µg/mL; MIC (K. pneumoniae ATCC 10031): > 64 µg/mL; MIC (E. coli MP-9 ΔTolC): > 64 µg/mL
CSC1O[C@H]([C@H](NC(=O)[C@H]2NC[C@@H]3C[C@H]4OC(C)(C)O[C@H]4CO[C@H]32)[C@H](C)Cl)C(O)[C@@H](O)[C@H]1O (stereo partly shown) [FSA-501099]	> 64	> 64		8 (≈ 15.7 µM)						> 64			> 64	> 64	> 64	> 64	> 64	> 64	> 64	> 64	MIC [14]: 2 µg/mL (≈ 3.91 µM); MIC [15]: 32 µg/mL (≈ 62.6 µM); MIC (K. pneumoniae ATCC 10031): > 64 µg/mL; MIC (E. coli MP-9 ΔTolC): > 64 µg/mL
